Measured values published in US12582116B2, “Agricultural formulations” (Dow Global Technologies LLC, priority 2020, dated 2026).

What was measured:
[1] = Solubility of agricultural active ingredients in solvent by visual observation, Formula 1 Solvent A vs aromatic hydrocarbon (Example 2)
Method: The aromatic hydrocarbon solvent used is Aromatic 150 from Exxon Mobil Corporation (“Aromatic Hydrocarbon”). The agricultural active ingredients used are bifenthrin, tebuconazole, nitrapyrin, and dicamba acid.
(§1) The solubilities are determined by visual observation using the following method. Four milliliter vials are charged with agricultural active ingredient (10 to 50 wt %) and the specified solvent (90 to 50 wt %). The vials are capped and taped to seal with electric tape. The vials are secured in a plastic container and shaken on a laboratory shaker for 12 hours at ambient laboratory temperature and humidity. After 12 hours, each sample set is evaluated for solubility of the agricultural active ingredient solid. Complete solubilization of the agricultural active ingredient is determined to be achieved if a homogeneous clear solution is observed. The formulations made with Formula 1 Solvent A represent some embodiments of agricultural formulations of the present invention.

[2] = Solubility of agricultural active ingredients in solvent by visual observation, Formula 1 Solvent A vs N,N-dialkyl fatty amide (Example 3)
Method: The N,N-dialkyl fatty amide solvent used is HALLCOMID™ M-10’, which is a N,N-dimethyldecanamide from Stepan Company (“N,N-dialkyl Fatty Amide”). The agricultural active ingredients used are bifenthrin, tebuconazole, nitrapyrin, and dicamba acid.
as §1

[3] = Mutual solubility of Formula 1 solvent and water (Example 1); format: physicochemical; conditions: for solubility in water: solvent dissolved in water
Method: The solubility of Formula 1 Solvent A in water is measured to be 0.67 weight percent. The solubility of water in Formula 1 Solvent A is measured to be 1.44 weight percent.

[4] = in Aromatic Hydrocarbon (Aromatic 150, Exxon Mobil), shaken 12 hours at ambient laboratory temperature, visual observation, Table 2
[5] = in Formula 1 Solvent A (ethyl 2-furoate, Ethyl 408), shaken 12 hours at ambient laboratory temperature, visual observation, Table 2
[6] = in Formula 1 Solvent A (ethyl 2-furoate, Ethyl 408), shaken 12 hours at ambient laboratory temperature, visual observation, Table 3
[7] = in N,N-dialkyl Fatty Amide (HALLCOMID M-10, N,N-dimethyldecanamide), shaken 12 hours at ambient laboratory temperature, visual observation, Table 3

| solubility of water in Formula 1 Solvent A ([3]; water dissolved in the solvent) [weight percent] | Agricultural Active Ingredient Solubility [2] [wt %] | Compound | Agricultural Active Ingredient Solubility [1, 4] [wt %] | Agricultural Active Ingredient Solubility [1, 5] [wt %] | Agricultural Active Ingredient Solubility [2, 6] [wt %] | Agricultural Active Ingredient Solubility [2, 7] [wt %] | solubility in water [3] [weight percent] | Agricultural Active Ingredient Solubility [1] [wt %] |
| --- | --- | --- | --- | --- | --- | --- | --- | --- |
| – | – | Cc1c(COC(=O)[C@@H]2[C@H](/C=C(\Cl)C(F)(F)F)C2(C)C)cccc1-c1ccccc1 (racemic) [Bifenthrin, bifenthrin] | 40 | 30 | 30 | 30 | – | – |
| – | – | 5-methyl-2-furoate | – | – | – | – | 0.67 | – |
| – | – | CC(C)(C)C(O)(CCc1ccc(Cl)cc1)Cn1cncn1 (centres unmarked) [Tebuconazole, tebuconazole] | <10 | – | 20 | 30 | – | 20 |
| – | – | COc1c(Cl)ccc(Cl)c1C(=O)O [Dicamba Acid, dicamba acid] | <10 | 40 | 40 | <10 | – | – |
| 1.44 | – | CCOC(=O)c1ccco1 [Formula 1 Solvent A, ethyl 2-furoate] | – | – | – | – | 0.67 | – |
| – | >50 | Clc1cccc(C(Cl)(Cl)Cl)n1 [Nitrapyrin, nitrapyrin] | – | – | – | – | – | >50 |
